Key:
[1] = system: Mycobacterium tuberculosis H37Rv; assay: Inhibition of Mycobacterium tuberculosis H37Rv Chorismate mutase at 30 uM relative to control
Plasmodium berghei = assay: Antimalarial activity against liver stage of Plasmodium berghei ANKA harboring luciferase gene infected in human HepG2 cells pretreated for 1 hr followed by parasite infection measured after […] by Bright-Glo luminescence assay; type: functional, cell-based
[2] = Inhibition of Mycobacterium tuberculosis H37Rv Chorismate mutase

| SMILES | inhibition [1] [%] | further results |
| --- | --- | --- |
| O=C1NC2(Cc3ccccc3C2)Nc2ccc(I)cc21 | 30 to 35 |  |
| CCN(CC)CCN1C(=O)c2ccccc2NC1c1ccc(Cl)cc1 (centres undefined) |  | EC50 (Plasmodium berghei): 1.4 µM |
| O=C1NC2(CCCCCC2)Nc2ccccc21 | 30 to 35 |  |
| COc1cc(CCNc2c([N+](=O)[O-])cc(C(=O)O)cc2S(N)(=O)=O)cc(OC)c1 |  | IC50 [2]: < 10 µM |
